Source: US20240343694A1, “PYRIMIDINE DERIVATIVE, METHOD FOR PREPARING SAME, AND PHARMACEUTICAL COMPOSITION FOR PREVENTING OR TREATING CANCER COMPRISING SAME AS ACTIVE INGREDIENT” (KOREA RESERARCH INSTITUTE OF CHEMICAL TECHNOLOGY, priority 2021, published 2024)

How the values were obtained:
[1] = molecular target: EGFR del19 (Homo sapiens (Human), UniProt P00533, DEL746-750); test: HTRF inhibitory activity against EGFR mutant enzyme (EGFR del19); format: biochemical; conditions: recombinant enzyme, 37° C. for 2 hours
Sequence of EGFR del19 (P00533 other isoform, or with tags, fused parts or gaps del 1-668/del 746-750 limits assumed): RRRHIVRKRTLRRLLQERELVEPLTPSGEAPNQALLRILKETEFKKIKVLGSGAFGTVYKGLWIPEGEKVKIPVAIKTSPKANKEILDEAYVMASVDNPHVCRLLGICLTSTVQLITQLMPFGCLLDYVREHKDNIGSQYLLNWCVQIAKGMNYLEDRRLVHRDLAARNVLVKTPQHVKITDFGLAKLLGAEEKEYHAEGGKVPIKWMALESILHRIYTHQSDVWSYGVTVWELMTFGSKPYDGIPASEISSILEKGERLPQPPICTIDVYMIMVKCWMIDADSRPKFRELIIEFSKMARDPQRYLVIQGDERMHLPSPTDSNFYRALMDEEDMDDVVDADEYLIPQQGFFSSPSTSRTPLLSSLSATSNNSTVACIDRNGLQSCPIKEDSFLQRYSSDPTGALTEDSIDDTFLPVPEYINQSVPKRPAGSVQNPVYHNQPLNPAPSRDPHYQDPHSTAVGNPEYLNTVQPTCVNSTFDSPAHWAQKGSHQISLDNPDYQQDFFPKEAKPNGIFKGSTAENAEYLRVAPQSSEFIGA
Summary of the method: (§1)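 IC50 was derived from 7 concentrations by HTRF: Eu-anti-pTyr and streptavidin-XL665 for 1 h at room temperature, with the 615/665 nm ratio read. The kinase reaction ran 2 h at 37 °C in Tris pH 7.5 buffer with ATP (stated 50 mM) and biotinylated peptide (0.5 mM). Enzyme was preincubated with compound before substrate was added.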

[2] = molecular target: EGFR A763_Y764insFHEA (Homo sapiens (Human), UniProt P00533, INS763FHEA); test: HTRF inhibitory activity against EGFR mutant enzyme (EGFR A763_Y764insFHEA); format: biochemical; conditions: recombinant enzyme, 37° C. for 2 hours
Sequence of EGFR A763_Y764insFHEA (P00533 other isoform, or with tags, fused parts or gaps del 1-694/ins FHEA behind 763 limits assumed): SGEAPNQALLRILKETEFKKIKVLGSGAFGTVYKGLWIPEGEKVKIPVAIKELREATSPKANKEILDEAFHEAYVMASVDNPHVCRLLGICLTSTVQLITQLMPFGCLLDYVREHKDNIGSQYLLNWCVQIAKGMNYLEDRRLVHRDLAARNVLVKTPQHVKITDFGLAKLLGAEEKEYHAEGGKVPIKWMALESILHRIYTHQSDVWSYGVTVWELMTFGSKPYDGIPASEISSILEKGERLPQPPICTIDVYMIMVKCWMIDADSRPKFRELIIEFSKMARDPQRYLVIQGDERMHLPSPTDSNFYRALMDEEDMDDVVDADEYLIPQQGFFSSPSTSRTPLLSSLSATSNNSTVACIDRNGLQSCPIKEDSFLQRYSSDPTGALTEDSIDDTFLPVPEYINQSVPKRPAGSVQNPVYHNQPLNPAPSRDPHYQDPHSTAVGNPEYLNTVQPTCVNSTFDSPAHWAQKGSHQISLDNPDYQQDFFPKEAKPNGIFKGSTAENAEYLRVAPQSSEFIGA
Summary of the method: as §1

[3] = molecular target: HER2 A775_G776insYVMA (Homo sapiens (Human), UniProt P04626, INS775YVMA); test: HTRF inhibitory activity against HER2 mutant enzyme; format: biochemical; conditions: recombinant enzyme, 37° C. for 2 hours
Sequence of HER2 A775_G776insYVMA (P04626 other isoform, or with tags, fused parts or gaps del 1-675/ins YVMA behind 775 limits assumed): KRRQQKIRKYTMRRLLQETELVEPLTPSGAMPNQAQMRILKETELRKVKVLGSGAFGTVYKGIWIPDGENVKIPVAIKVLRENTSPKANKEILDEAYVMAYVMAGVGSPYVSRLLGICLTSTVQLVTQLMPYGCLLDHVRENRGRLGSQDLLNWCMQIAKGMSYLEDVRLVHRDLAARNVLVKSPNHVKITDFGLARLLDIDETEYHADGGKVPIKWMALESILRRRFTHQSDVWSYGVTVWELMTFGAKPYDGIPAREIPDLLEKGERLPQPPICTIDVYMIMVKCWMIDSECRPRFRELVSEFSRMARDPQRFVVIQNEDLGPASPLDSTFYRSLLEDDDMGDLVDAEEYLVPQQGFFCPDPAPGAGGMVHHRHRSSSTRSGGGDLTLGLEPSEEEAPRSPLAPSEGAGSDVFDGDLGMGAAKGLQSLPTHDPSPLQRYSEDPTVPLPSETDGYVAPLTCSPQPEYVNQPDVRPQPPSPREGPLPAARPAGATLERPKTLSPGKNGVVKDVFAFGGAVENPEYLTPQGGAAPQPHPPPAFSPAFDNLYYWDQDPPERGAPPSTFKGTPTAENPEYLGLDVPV
Summary of the method: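 Recombinant HER2 A775_G776insYVMA preincubated with compound, then […] and biotinylated peptide ([…]) added; 2 h at 37 °C in Tris-HCl pH 7.5 buffer with MgCl2, DTT. HTRF detection (Eu anti-phosphotyrosine/streptavidin-XL665); IC50 from 7 concentrations.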

[4] = test system: Ba/F3 EGFR V769_D770insASV; test: Growth inhibition of Ba/F3 EGFR mutant cells (CellTiter-Glo); format: cell-based; conditions: 72 hours
Experimental: (§2) The activity of the compounds of the present invention against Ba/F3 EGFR V769_D770insASV and Ba/F3 EGFR D770_N771insSVD mutant cell lines was measured using the CellTiter-Glo system purchased from Promega as follows. CellTiter-Glo assay is a method to measure cell viability by monitoring ATP present in cells. Ba/F3 EGFR V769_D770insASV and Ba/F3 EGFR D770_N771insSVD mutant cell lines were purchased from Crown Biosciences. Ba/F3 EGFR V769_D770insASV and Ba/F3 EGFR D770_N771insSVD mutant cell lines were cultured in RPMI containing 10% FBS and 1% penicillin-streptomycin with 1 μg/mL of puromycin in a 5% CO2 incubator at 37° C.
(§3) The analysis of the ability of the compounds to inhibit the growth of EGFR mutant cells was performed according to the following method. 1,000 cells/100 μL were seeded in a 96-well cell culture plate, and 24 hours thereafter, the compounds represented by Formula 1 were treated with 0 μM, 0.01 μM, 0.03 μM, 0.1 μM, 0.3 μM, 1 μM, 3 μM, and 10 μM. After incubating for 72 hours, the plate treated with the compounds were left at room temperature for 30 minutes, 100 μL of a reagent was further added thereto, and then shaken at room temperature for 10 minutes. Finally, using equipment, the ratio of […] was measured to confirm the cell growth inhibition ability of the compounds. The measured values at 8 compound concentrations were analyzed using the Prism program (version 5.01, Graphpad Software, Inc.), and the IC50 (μM) values, which are measures of the compounds' inhibitory ability, were calculated.

[5] = test system: Ba/F3 HER2 A775_G776insYVMA; test: Growth inhibition of Ba/F3 HER2 mutant cells (CellTiter-Glo); format: cell-based; conditions: Mus musculus, BaF3, 72 hours
Experimental: as §2, with “HER2 A775_G776insYVMA” for “EGFR V769_D770insASV”, “HER2 G776delinsVC” for “EGFR D770_N771insSVD”, “a” for “a 5%”
as §3, with “HER2” for “EGFR”, “reacting” for “incubating”, “was” for “was further”

[6] = test system: Ba/F3 HER2 G776delinsVC; test: as above; format: cell-based; conditions: Mus musculus, BaF3, 72 hours
Experimental: as §2, with “HER2 A775_G776insYVMA” for “EGFR V769_D770insASV”, “HER2 G776delinsVC” for “EGFR D770_N771insSVD”, “a” for “a 5%”
as §3, with “HER2” for “EGFR”, “reacting” for “incubating”, “was” for “was further”

[7] = test system: Ba/F3 EGFR D770_N771insSVD; test: Growth inhibition of Ba/F3 EGFR mutant cells (CellTiter-Glo); format: cell-based; conditions: Ba/F3 EGFR-D770-N771ins_SVD, 72 hours
Experimental: as §2, §3

| IC50 [1] | IC50 [2] | IC50 [3] | IC50 [4] | IC50 [5] | IC50 [6] | IC50 [7] | SMILES |
| --- | --- | --- | --- | --- | --- | --- | --- |
| < 1 nM | 2 nM | 37 nM | 10 to 30 nM | > 100 nM | 10 to 30 nM | – | C=CC(=O)Nc1cc(Nc2ncc(Cl)c(Nc3ccccc3NS(=O)(=O)CC)n2)c(OC)cc1N(C)CCN(C)C [Example 4, N-(5-((5-chloro-4-((2-(ethylsulfonamido)phenyl)amino)pyrimidin-2-yl)amino)-2-((2-(dimethylamino)ethyl)(methyl)amino)-4-methoxyphenyl)acrylamide] |
| < 1 nM | 3 nM | 22 nM | > 100 nM | > 100 nM | 10 to 30 nM | > 100 nM | C=CC(=O)Nc1cc(Nc2ncc(Cl)c(Nc3ccccc3NS(C)(=O)=O)n2)c(OC)cc1OCCN1CCCC1 [Example 22, N-(5-((5-chloro-4-((2-(methylsulfonamido)phenyl)amino)pyrimidin-2-yl)amino)-4-methoxy-2-(2-(pyrrolidin-1-yl)ethoxy)phenyl)acrylamide] |
| – | – | 10 nM | 10 to 30 nM | 10 to 30 nM | – | 10 to 30 nM | C=CC(=O)Nc1cc(Nc2ncc(Cl)c(Nc3cccc4c3N(S(C)(=O)=O)CCC4)n2)c(OC)cc1N(C)CCN1CCOCC1 [Example 53, N-(5-((5-chloro-4-((1-(methylsulfonyl)-1,2,3,4-tetrahydroquinolin-8-yl)amino)pyrimidin-2-yl)amino)-4-methoxy-2-(methyl(2-morpholinoethyl)amino)phenyl)acrylamide] |
| < 1 nM | < 1 nM | 1 nM | 10 to 30 nM | 10 to 30 nM | – | 10 to 30 nM | C=CC(=O)Nc1cc(Nc2ncc(C(=O)OC(C)C)c(Nc3cccc4c3N(S(C)(=O)=O)CC4)n2)c(OC)cc1N(C)CCN(C)C [Example 61, isopropyl 2-((5-acrylamido-4-((2-(dimethylamino)ethyl)(methyl)amino)-2-methoxyphenyl)amino)-4-((1-(methylsulfonyl)indolin-7-yl)amino)pyrimidin-5-carboxylate] |
| – | – | 3 nM | 10 to 30 nM | 10 to 30 nM | – | 10 to 30 nM | C=CC(=O)Nc1cc(Nc2ncc(C#N)c(Nc3cccc4c3N(S(C)(=O)=O)CC4)n2)c(OC)cc1N(C)CCN(C)C [Example 62, N-(5-((5-cyano-4-((1-(methylsulfonyl)indolin-7-yl)amino)pyrimidin-2-yl)amino)-2-((2-(dimethylamino)ethyl)(methyl)amino)-4-methoxyphenyl)acrylamide] |
| – | – | < 1 nM | 10 to 30 nM | 10 to 30 nM | – | 10 to 30 nM | C=CC(=O)Nc1cc(Nc2ncc(Cl)c(Nc3cccc4c3N(S(C)(=O)=O)CC4)n2)c(OC)cc1OCCN(C)C [Example 63, N-(5-((5-chloro-4-((1-(methylsulfonyl)indolin-7-yl)amino)pyrimidin-2-yl)amino)-2-(2-(dimethylamino)ethoxy)-4-methoxyphenyl)acrylamide] |
| < 1 nM | < 1 nM | 3 nM | 30 to 50 nM | 10 to 30 nM | – | 30 to 50 nM | C=CC(=O)Nc1cc(Nc2ncc(Cl)c(Nc3cccc4c3N(S(C)(=O)=O)CC4)n2)c(OC)cc1N(C)CCN1CCOCC1 [Example 64, N-(5-((5-chloro-4-((1-(methylsulfonyl)indolin-7-yl)amino)pyrimidin-2-yl)amino)-4-methoxy-2-(methyl(2-morpholinoethyl)amino)phenyl)acrylamide] |
| < 1 nM | < 1 nM | 15 nM | 10 to 30 nM | 10 to 30 nM | – | 10 to 30 nM | C=CC(=O)Nc1cc(Nc2ncc(C(F)(F)F)c(Nc3cccc4c3N(S(C)(=O)=O)CC4)n2)c(OC)cc1N(C)CCN(C)C [Example 65, N-(2-((2-(dimethylamino)ethyl)(methyl)amino)-4-methoxy-5-((4-((1-(methylsulfonyl)indolin-7-yl)amino)-5-(trifluoromethyl)pyrimidin-2-yl)amino)phenyl)acrylamide] |
| < 1 nM | < 1 nM | 5 nM | 10 to 30 nM | 10 to 30 nM | – | 10 to 30 nM | C=C(F)C(=O)Nc1cc(Nc2ncc(Cl)c(Nc3cccc4c3N(S(C)(=O)=O)CC4)n2)c(OC)cc1N(C)CCN(C)C [Example 66, N-(5-((5-chloro-4-((1-(methylsulfonyl)indolin-7-yl)amino)pyrimidin-2-yl)amino)-2-((2-(dimethylamino)ethyl)(methyl)amino)-4-methoxyphenyl)-2-fluoroacrylamide] |
| < 1 nM | < 1 nM | 1 nM | 10 to 30 nM | – | – | < 10 nM | C=CC(=O)Nc1cc(Nc2ncc(Cl)c(Nc3cccc4c3N(S(C)(=O)=O)CC4)n2)c(OC)cc1OCCN1CCCC1 [Example 79, N-(5-((5-chloro-4-((1-(methylsulfonyl)indolin-7-yl)amino)pyrimidin-2-yl)amino)-4-methoxy-2-(2-(pyrrolidin-1-yl)ethoxy)phenyl)acrylamide] |
| < 1 nM | < 1 nM | 1 nM | < 10 nM | – | – | < 10 nM | C=CC(=O)Nc1cc(Nc2ncc(Cl)c(Nc3cccc4c3N(S(C)(=O)=O)CC4)n2)c(OC)cc1N(C)CCN1CCC1 [Example 80, N-(2-((2-(azetidin-1-yl)ethyl)(methyl)amino)-5-((5-chloro-4-((1-(methylsulfonyl)indolin-7-yl)amino)pyrimidin-2-yl)amino)-4-methoxyphenyl)acrylamide] |
| < 1 nM | < 1 nM | 2 nM | < 10 nM | – | – | < 10 nM | C=CC(=O)Nc1cc(Nc2ncc(Cl)c(Nc3ccc(C)cc3N(C)S(C)(=O)=O)n2)c(OC)cc1N(C)CCN1CCC1 [Example 82, N-(2-((2-(azetidin-1-yl)ethyl)(methyl)amino)-5-((5-chloro-4-((4-methyl-2-(N-methylmethylsulfonamido)phenyl)amino)pyrimidin-2-yl)amino)-4-methoxyphenyl)acrylamide] |
| 1 nM | 5 nM | – | 10 to 30 nM | 50 to 100 nM | < 10 nM | 30 to 50 nM | C=CC(=O)Nc1cc(Nc2ncc(F)c(Nc3cccc4c3N(C(C)=O)CC4)n2)c(OC)cc1N(C)CCN(C)C [Example 101, N-(5-((4-((1-acetylindolin-7-yl)amino)-5-fluoropyrimidin-2-yl)amino)-2-((2-(dimethylamino)ethyl)(methyl)amino)-4-methoxyphenyl)acrylamide] |
